Results on three compounds are retold here after patent US5705170A, “Herbal cellulite treatments” (priority 1995, dated 1998).

Test [1] concerns isolated adipocytes (adipocyte α2-receptors). Kind of test: Inhibition of adipocyte lipid synthesis (lipogenesis). It is filed as cell-based. An excerpt:
The results obtained are reported below in Table 2.

For test [2], the system named is adipocytes isolated from the thigh area of volunteers (adipocyte β receptors). In words: Lipolysis stimulation by glycerin release in isolated adipocytes. The format is cell-based, human. Particulars: for Concentration at maximum stimulation: lipolysis; for Emax: Homo sapiens, Adipocyte, read-out: Maximum stimulation (lipolysis). The procedure:
Glycerin release was used as a parameter to quantify lipolysis in actively metabolism adipocytes isolated from the thigh area of volunteers and evaluate various ingredients for their ability to stimulate adipocyte β receptors. Refined, or purified Malvaceae extracts comprising preferred aqueous or lipophilic fractions as described above, and some known β-adrenergic stimulators used in anticellulite treatments, namely the xanthines aminophylline, caffeine and theophylline, were tested. Also tested, for comparative purposes, were a crude Hibiscus Abelmoschus extract and a herbal ingredient that has been used in anticellulite compositions, ivy extract.

In a further test the test system is cAMP. In words: cAMP level (elevation of cAMP). The format is cell-based, human.
Setting [3] is: glycerin release, most effective concentration.

As to `Cn1c(=O)c2[nH]cnc2n(C)c1=O` [aminophylline], in test [1], the “Lipogenesis inhibition (in words)” value is reported as “No lipogenesis inhibition activity” and the “Maximum inhibition of adipocyte fat” value is “none”. For the same compound, the “Maximum stimulation (lipolysis)” value in test [2] (setting [3]) was 54.0%. Moreover, the “Concentration at maximum stimulation” value in test [2] amounted to 1.00 mg/mL. Further, the “Elevation of cAMP” value with cAMP was “ns”.
Consider `Cn1c(=O)c2[nH]cnc2n(C)c1=O` [theophylline], for which, in test [1], the “Lipogenesis inhibition (in words)” value was “No lipogenesis inhibition activity” and the “Maximum inhibition of adipocyte fat” value is “none”. The Emax in test [2] (setting [3]) turned out to be 45%. Further, the “Concentration at maximum stimulation” value in test [2] worked out at 1.00 mg/mL. For the same compound, in the test on cAMP, the “Elevation of cAMP” value is recorded as “ns”.
Consider `Cn1c(=O)c2c(ncn2C)n(C)c1=O` [caffeine], for which the Emax in test [2] (setting [3]) turned out to be 51%. For the same compound, the “Concentration at maximum stimulation” value in test [2] stood at 2.00 mg/mL. Moreover, the “Elevation of cAMP” value with cAMP was “ns”.
